Laboratory results published in patent publication US11820961B2, “Musk compositions and methods of use thereof” (Takasago International Corporation, priority 2015, dated 2023).

Assays:
salivary alpha-amylase = salivary alpha-amylase level before and after a stress test (kinetic reaction assay kit); format: in vivo, human; details: Table 6; before vs immediately after ten minute stress test; about 10-15 panelists; DPG = +60.7%
From the text: Salivary alpha-amylase is widely used as a biomarker for acute stress. The purpose of this study was to investigate the influence of individual fragrance compounds, particularly musk compounds, on a subject's salivary alpha-amylase levels before and after exposure to a stressor. The subject sniffed each musk compound, then was exposed to a stressor. The goal was to identify one or more specific musk compounds which caused the least amount of change in salivary alpha-amylase levels or decreased a subject's salivary alpha-amylase levels compared to before administration, thereby reducing or inhibiting a response to stress stimuli. […] The p values of the control as compared to each musk compound were calculated as follows: rosamusk (p=0.0366), habanolide (p=0.1163), ambrettolide (p=0.1397).
Twelve to fourteen female panelists age 30-45 participated in this study for each of the test materials. Stress was induced using a timed ten minute mathematical/word test in a small group competition setting. The musk material was introduced at intervals during the stress test.
Saliva was collected before and immediately after the stress test. Saliva samples were assayed for salivary alpha-amylase activity using a commercially available kinetic reaction assay kit (Salimetrics®, State College, Pa.).
(§1) Fourteen female panelists age 30-45 participated in this study. Stress was induced using a timed ten minute mathematical/word test in a small group competition setting. Fragrance was introduced at intervals during the stress test. Saliva was collected before (Pre) and immediately after (Post) the stress test. Saliva samples were assayed for salivary alpha-amylase using a commercially available kinetic reaction assay kit and for salivary cortisol using a highly sensitive enzyme immunoassay kit (Salimetrics®, State College, Pa.).
(§2) Stress was induced in a number of panelists (about 10-15) for each tested compound using a timed ten minute mathematical/word test in a small group competition setting. The test compound was introduced at intervals during the stress test.
(§3) Saliva was collected before and immediately after the stress test. Saliva samples were assayed for salivary cortisol levels and salivary alpha-amylase activity using a commercially available kinetic reaction assay kit (Salimetrics®, State College, Pa.).
(§4) Methodology for number of drops. Ten to twenty-four panelists age 30-45 participated in this study. The amount of fragrance tested was divided equally and applied onto 6 blotter cards each 3 by 5 inches in size. They were weighed and placed in the test room 30 minutes before the stress test to equilibrate.
(§5) Stress was induced using a timed ten-minute mathematical/word test in a small group competition setting. The blotter cards were removed and weighed again after the stress test. […]

salivary cortisol = salivary cortisol level before and after a stress test (enzyme immunoassay kit); format: in vivo, human; details: Table 6; before vs immediately after ten minute stress test; about 10-15 panelists; DPG = −10.9%
From the text: Salivary cortisol is widely used as a biomarker for stress. The purpose of this study was to investigate the influence of individual fragrance compounds, particularly musk compounds, on a subject's cortisol levels before and after exposure to a stressor. The subject sniffed each musk compound, then was exposed to a stressor. The goal was to identify one or more specific musk compounds which caused the least amount of change in cortisol levels or decreased a subject's cortisol levels compared to before administration, thereby reducing or inhibiting a response to stress stimuli.
as §1, §2, §3, §4, §5

[1] = chassis-air partition coefficient, BC-162 shampoo chassis; format: physicochemical
From the text: (§6) The chassis-air partition coefficient can be measured for materials in various chassis.
(§7) Ki,chassis-air is the chassis-air partition coefficient for component i in the fragrance formula
(§8) Ci, chassis is the concentration of component i in the product formula chassis in molarity, M
(§9) Ci, air is the concentration of component i in the headspace air in equilibrium with the formula chassis in molarity, M
(§10) For the “Example Accord” in the BC-162 shampoo chassis components, the log chassis-air partition coefficients are as listed in Table 11.

[2] = chassis-air partition coefficient, APDO soft solid chassis; format: physicochemical
From the text: as §6, §7, §8, §9, §10

## CC(=O)C(C)CC[C@H]1CCC(C)C1(C)C (stereo partly drawn) [3-methyl-5-((1R)-2,2,3-trimethylcyclopentyl)pentan-2-one]
Salivary alpha-amylase
  Salivary Amylase Data (change in salivary alpha-amylase): −6.1%

## CC1=CCC(C/C=C(\C)CO)C1(C)C (stereo not drawn) [Hindinol ®, (E)-2-methyl-4-(2,2,3-trimethyl-1-cyclopent-3-enyl)but-2-en-1-ol]
Salivary alpha-amylase
  Salivary Amylase Data (change in salivary alpha-amylase): +82.3%
Salivary cortisol
  Cortisol Data (change in salivary cortisol): −25.0%

## CC1CCCCCCCCCCCCC(=O)C1 [L-Muscone]
Salivary alpha-amylase
  Salivary Amylase Data (change in salivary alpha-amylase): +14.5%
Salivary cortisol
  Cortisol Data (change in salivary cortisol): +25.6%

## CC(=O)c1cc2c(cc1C)C(C)(C)C(C)C2(C)C (stereo not drawn) [Phantolide, 1-(1,1,2,3,3,6-hexamethyl-2H-inden-5-yl)ethanone]
Salivary alpha-amylase
  Salivary Amylase Data (change in salivary alpha-amylase): −19.2%
Salivary cortisol
  Cortisol Data (change in salivary cortisol): −12.3%

## C=C.CCCCCCCCCCCC(=O)O [ZENOLIDE, ethylene dodecanoate]
[1]
  logK, BC162 (log chassis-air partition coefficient): 6.131
[2]
  logK, APDO Soft Solid (log chassis-air partition coefficient): 6.966
